Source: ChEMBL document CHEMBL1201862, “PubChem BioAssay data set” (2004)
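Following 48 hours of exposure in 96-well plates, responses at five concentrations were used to interpolate endpoints linearly. GI50 marks 50% less growth.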 The source made the active and inactive calls. Cut-off read from the data, not from the text of the source: active = GI50 up to about 1.1 µM and inactive = higher.

Columns and labels:
Test in all cases: DTP human tumour cell line panel, 48 h
786-0 = system: 786-0
A549 = system: A549
ACHN = system: ACHN
CAKI-1 = system: CAKI-1
CCRF-CEM = system: CCRF-CEM
COLO 205 = system: COLO 205
DLD-1 = system: DLD-1
DMS-114 = system: DMS-114
DMS-273 = system: DMS-273
DU-145 = system: DU-145
EKVX = system: EKVX
HCC 2998 = system: HCC 2998
HCT-116 = system: HCT-116
HCT-15 = system: HCT-15
HL-60 = system: HL-60
HOP-18 = system: HOP-18
HOP-62 = system: HOP-62
HOP-92 = system: HOP-92
HT-29 = system: HT-29
IGROV-1 = system: IGROV-1
K562 = system: K562
KM-20L2 = system: KM-20L2
KM12 = system: KM12
LOX IMVI = system: LOX IMVI
LXFL 529 = system: LXFL 529
M14 = system: M14
M19-MEL = system: M19-MEL
MCF7 = system: MCF7
MDA-MB-231 = system: MDA-MB-231
MDA-MB-435 = system: MDA-MB-435
MDA-N = system: MDA-N
MOLT-4 = system: MOLT-4
Malme-3M = system: Malme-3M
NCI-H226 = system: NCI-H226
NCI-H23 = system: NCI-H23
NCI-H460 = system: NCI-H460
NCI-H522 = system: NCI-H522
NCI/ADR-RES = system: NCI/ADR-RES
OVCAR-3 = system: OVCAR-3
OVCAR-4 = system: OVCAR-4
OVCAR-5 = system: OVCAR-5
OVCAR-8 = system: OVCAR-8
PC-3 = system: PC-3
RPMI-8226 = system: RPMI-8226
RXF 393 = system: RXF 393
RXF 631 = system: RXF 631
SF-268 = system: SF-268
SF-295 = system: SF-295
SF-539 = system: SF-539
SK-MEL-28 = system: SK-MEL-28
SK-MEL-2 = system: SK-MEL-2
SK-MEL-5 = system: SK-MEL-5
SK-OV-3 = system: SK-OV-3
SN12C = system: SN12C
SNB-19 = system: SNB-19
SNB-75 = system: SNB-75
SNB-78 = system: SNB-78
SR = system: SR
SW-620 = system: SW-620
T47D = system: T47D
TK-10 = system: TK-10
U-251 = system: U-251
UACC-257 = system: UACC-257
UACC-62 = system: UACC-62
UO-31 = system: UO-31
XF498 = system: XF498

Compound: CC(C)CCCCCCCCCCCCC(=O)NCC(=O)NC1C(C)OC(Nc2[nH]cnc3ncnc2-3)C(O)C1O (stereo unspecified)
- GI50 (786-0): 0.491 nM (active)
- GI50 (A549): 1.28 nM (active)
- GI50 (ACHN): 0.468 nM (active)
- GI50 (CAKI-1): < 10 nM (active)
- GI50 (CCRF-CEM): 4.8 nM (active)
- GI50 (COLO 205): 0.622 nM (active)
- GI50 (DLD-1): 10 nM (active)
- GI50 (DMS-114): < 31.6 nM (active)
- GI50 (DMS-273): < 10 nM (active)
- GI50 (DU-145): 2.2 nM (active)
- GI50 (EKVX): 5.75 nM (active)
- GI50 (HCC 2998): 0.331 nM (active)
- GI50 (HCT-116): 0.244 nM (active)
- GI50 (HCT-15): < 24.7 nM
- GI50 (HL-60): 0.746 nM (active)
- GI50 (HOP-18): < 10 nM (active)
- GI50 (HOP-62): 0.361 nM (active)
- GI50 (HOP-92): 0.28 nM (active)
- GI50 (HT-29): 1.25 nM (active)
- GI50 (IGROV-1): 0.782 nM (active)
- GI50 (K562): 6.44 nM (active)
- GI50 (KM-20L2): < 10 nM (active)
- GI50 (KM12): 0.341 nM (active)
- GI50 (LOX IMVI): 0.262 nM (active)
- GI50 (LXFL 529): 0.588 nM (active)
- GI50 (M14): 0.487 nM (active)
- GI50 (M19-MEL): < 10 nM (active)
- GI50 (MCF7): < 10 nM (active)
- GI50 (MDA-MB-231): < 10 nM (active)
- GI50 (MDA-MB-435): 5.71 nM (active)
- GI50 (MDA-N): < 10 nM (active)
- GI50 (MOLT-4): 1.02 nM (active)
- GI50 (Malme-3M): 0.332 nM (active)
- GI50 (NCI-H226): 2.4 nM (active)
- GI50 (NCI-H23): 5.36 nM (active)
- GI50 (NCI-H460): 0.158 nM (active)
- GI50 (NCI-H522): 2.73 nM (active)
- GI50 (NCI/ADR-RES): 2.21 nM (active)
- GI50 (OVCAR-3): 0.173 nM (active)
- GI50 (OVCAR-4): 0.98 nM (active)
- GI50 (OVCAR-5): 1.23 nM (active)
- GI50 (OVCAR-8): 0.153 nM (active)
- GI50 (PC-3): 4.33 nM (active)
- GI50 (RPMI-8226): 0.568 nM (active)
- GI50 (RXF 393): < 10 nM (active)
- GI50 (RXF 631): 0.0354 nM (active)
- GI50 (SF-268): 0.635 nM (active)
- GI50 (SF-295): 2.34 nM (active)
- GI50 (SF-539): 0.931 nM (active)
- GI50 (SK-MEL-28): < 10 nM (active)
- GI50 (SK-MEL-2): 3.85 nM (active)
- GI50 (SK-MEL-5): 2.89 nM (active)
- GI50 (SK-OV-3): < 10 nM (active)
- GI50 (SN12C): 2.14 nM (active)
- GI50 (SNB-19): 2.1 nM (active)
- GI50 (SNB-75): 0.535 nM (active)
- GI50 (SNB-78): 0.646 nM (active)
- GI50 (SR): 1.53 nM (active)
- GI50 (SW-620): 1.01 nM (active)
- GI50 (T47D): 2.35 nM (active)
- GI50 (TK-10): 1.02 nM (active)
- GI50 (U-251): 0.425 nM (active)
- GI50 (UACC-257): < 10 nM (active)
- GI50 (UACC-62): < 10 nM (active)
- GI50 (UO-31): 0.381 nM (active)
- GI50 (XF498): < 10 nM (active)
